According to PubChem BioAssay (NCI):
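Values below derive from 48-hour exposures of cells grown in 96-well plates, with endpoints linearly interpolated between the two concentrations bracketing the appropriate inhibition level. GI50 is the concentration that inhibits growth by half. Definition used: TGI = concentration required for complete inhibition of growth.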

Assays:
Assay in all cases: inhibition of tumour cell growth, NCI panel, 48 h
OVCAR-5 ovarian = test system: OVCAR-5 ovarian
UO-31 renal = test system: UO-31 renal
HL-60(TB) leukemia = test system: HL-60(TB) leukemia
K-562 leukemia = test system: K-562 leukemia
SN12C renal = test system: SN12C renal
SNB-75 CNS = test system: SNB-75 CNS
SF-539 CNS = test system: SF-539 CNS
NCI-H460 lung = test system: NCI-H460 lung
MDA-MB-231 breast = test system: MDA-MB-231 breast
MCF7 breast = test system: MCF7 breast

Structure (SMILES) | TGI (OVCAR-5 ovarian) [µM] | TGI (UO-31 renal) [µM] | TGI (HL-60(TB) leukemia) [µM] | TGI (K-562 leukemia) [µM] | TGI (SN12C renal) [µM] | TGI (SNB-75 CNS) [µM] | TGI (SF-539 CNS) [µM] | TGI (NCI-H460 lung) [µM] | GI50 (OVCAR-5 ovarian) [µM] | GI50 (UO-31 renal) [µM] | GI50 (K-562 leukemia) [µM] | GI50 (MDA-MB-231 breast) [µM] | TGI (MDA-MB-231 breast) [µM] | GI50 (SN12C renal) [µM] | GI50 (SF-539 CNS) [µM] | GI50 (NCI-H460 lung) [µM] | GI50 (HL-60(TB) leukemia) [µM] | GI50 (SNB-75 CNS) [µM] | TGI (MCF7 breast) [µM]
CCCCOC(=O)C1C2CCC(O2)C1C(=O)OCCCC (configuration not stated) | > 100 | > 100 | > 100 | > 100 | > 100 | > 100 | > 100 | > 47.1 | – | – | – | – | – | – | – | – | – | – | –
COc1cc([N+](=O)[O-])c(OC)cc1-c1nc2sc(Cl)cn2c1/C(N)=N/C(=N)N | 45.4 | > 61.8 | – | > 100 | 4.29 | – | 50.8 | 46.7 | 19.7 | 26.2 | 2.01 | 2.19 | 8.25 | 1.91 | 4.53 | 16.1 | – | – | –
CCS(CC)(CC)CC1CCCC2=CCC(P(=O)(c3ccccc3)c3ccccc3)CC21 (configuration not stated) | 30.4 | 20.3 | 12.3 | 39.9 | 26.3 | 25.4 | 27.3 | 24.8 | – | – | – | – | – | – | – | – | – | – | –
CCOc1ccc2c(c1)[n+]([O-])c(-c1ccc(Cl)cc1)c(N)[n+]2[O-] | > 100 | > 100 | > 100 | > 100 | > 100 | > 100 | > 100 | > 100 | – | – | – | – | – | – | – | – | – | – | –
C=C1C(=O)O[C@H]2[C@H]1CC/C(COC(=O)NCc1cn(C)c3ccccc13)=C\CC[C@@]1(C)O[C@@H]21 | 3.96 | 2.62 | 2.86 | 9.26 | 3.01 | 17.6 | 2.7 | 10.1 | 1.72 | 1.34 | 0.369 | 1.68 | 3.54 | 1.21 | 1.37 | 2.77 | 0.49 | 4.16 | –
COc1cc([C@@H]2OC[C@@H]3C(c4cc(OC)c5c(c4)OCO5)OC[C@@H]32)cc(OC)c1OC (some centres not stated) | > 100 | > 100 | – | > 100 | – | > 100 | > 100 | > 100 | – | – | – | – | > 100 | – | – | – | – | – | > 100
COc1ccc(Br)c(N/N=C2\CCCNC2=O)c1 | > 100 | > 100 | > 100 | > 100 | > 100 | > 100 | > 100 | > 100 | – | – | – | – | – | – | – | – | – | – | –
CC(=O)OCC1OC(n2cnc(C(N)=S)c2N)C(OC(C)=O)C1OC(C)=O (configuration not stated) | > 100 | > 100 | > 100 | – | > 100 | > 100 | > 100 | > 100 | – | – | – | – | > 100 | – | – | – | – | – | > 100
O=[N+]([O-])c1cc(C(F)(F)F)cc([N+](=O)[O-])c1CCl | 10.1 | 20.6 | 3.21 | 1.11 | 3.08 | 8.77 | 9.23 | 21.4 | – | – | – | – | – | – | – | – | – | – | –
Oc1ccccc1/C=C/c1csnn1 | > 100 | > 100 | 99.7 | > 100 | > 100 | > 100 | > 100 | > 100 | – | – | – | – | – | – | – | – | – | – | –
